Data reported in article PMC9749936, “Synthesis and structure–activity relationship studies of N-terminal analogues of the lipopeptide antibiotics brevicidine and laterocidine” (RSC Medicinal Chemistry, 2022).
Read-outs that look alike come from different tables or passages of the source. Bridge positions count the residues as written; N and C are the ends. Square brackets hold non-standard residues; d marks the D form. Peptide text beside a SMILES is read from it. * marks the point of attachment. ξ: configuration not given here. Hexanoyl(4ξ-Me) = CCC(C)CCC(=O)*; Myristoyl = CCCCCCCCCCCCCC(=O)*; dOrn = NCCC[C@@H](N)C(=O)O; X1 = CC[C@H](C)CCCCC(=O)*; Octanoyl = CCCCCCCC(=O)*; Orn = NCCC[C@H](N)C(=O)O; Dab = NCC[C@H](N)C(=O)O

Legend:
A. baumannii ATCC 17961 = assay type: cell-based, Acinetobacter baumannii
Description: (§1) The minimum inhibitory concentrations (MICs) of brevicidine and laterocidine analogues were determined against a panel of clinically relevant ESKAPE pathogens; Escherichia coli (E. coli), Klebsiella pneumoniae (K. pneumoniae), Acinetobacter baumannii (A. baumannii), Pseudomonas aeruginosa (P. aeuroginosa) and Staphylococcus aureus (S. aureus), which cause the majority of nosocomial infections in the United States.[16] […] In this resistance mechanism, the polymyxin target (lipid A) is modified, reducing binding affinity. For this reason, a strain of colistin-resistant E. coli carrying the mcr-1 gene was also included in the panel. […]
(§2) IV. Antimicrobial testing
(§3) All minimum inhibitory concentrations (MICs) were determined according to Clinical and Standards Laboratory Institute (CLSI) guidelines. Blood agar plates were inoculated with glycerol stocks of E. coli ATCC 25922, K. pneumoniae ATCC 13883, A. baumannii ATCC 17961, P. aeruginosa PAO1 and S. aureus USA300. The inoculated agar plates were then incubated for 16 h at 37 °C . Individually grown colonies were subsequently used to inoculate 5 mL aliquots of TSB that were then incubated at 37 °C with shaking at 220 rpm. E. coli 25922 MCR-1 glycerol stock was used to inoculate 5 mL of TSB supplemented with kanamycin that was then incubated for 16 h at 37 °C with shaking at 220 rpm. The next day the culture was diluted 100 fold in TSB supplemented with kanamycin and incubated at 37 °C with shaking at 220 rpm. In parallel, the lipopeptide antibiotics DMSO stocks to be assessed were serially diluted with MHB in polypropylene 96-well plates (50 µL in each well). Colistin sulfate stocks were dissolved in water before being diluted with MHB. Aliquots of the inoculated TSB were incubated until an OD600 of around 0.5 was reached. The bacterial suspensions were then diluted with MHB (2 x 10^5 CFU mL-1) and added to the microplates containing the test compounds (50 µL to each well). The well-plates were sealed with an adhesive membrane and after 18 h of incubation at 37 °C with shaking at 600 rpm, the wells were visually inspected for bacterial […]
(§4) growth. MIC values reported are based on three technical replicates and defined as the lowest concentration of the compound that prevented visible growth of bacteria. […]
(§5) The values obtained from a read-out at 415 nm were corrected for background (negative control) and transformed to a percentage relative to the positive control.
(§6) VI. HPLC and HRMS analysis of peptides
(§7) Peptide Name Chemical Calcd Mass found Calcd Overall […]

E. coli ATCC 25922 = assay type: cell-based, Escherichia coli
Description: as §1, §2, §3, §4, §5, §6, §7

P. aeruginosa PAO1 = assay type: cell-based, Pseudomonas aeruginosa
Description: as §1, §2, §3, §4, §5, §6, §7

S. aureus USA300 = assay type: cell-based, Staphylococcus aureus
Description: as §1, §2, §3, §4, §5, §6, §7

K. pneumoniae ATCC 13883 = assay type: cell-based, Klebsiella pneumoniae
Description: as §1, §2, §3, §4, §5, §6, §7

Sheep red blood cells = assay type: cell-based
Description: Having ascertained the antimicrobial activity of all synthetic peptides against a panel of ESKAPE pathogens, we next assessed their mammalian toxicity with hemolytic assays using sheep red blood cells. The % hemolysis for all peptides at 64 μg mL^−1 was determined, with the hemolysis induced by the surfactant 0.1% Triton X-100 taken as 100%. […] Hemolysis was <1% for all analogues with a C8 chain or shorter, including the strongest antibacterial peptide C8-Lat (22). Hemolytic activity increased up to C14 (>50% for C14-Lat) and then decreased at longer chain lengths, perhaps due to decreased solubility of peptides or aggregation. […]
Phosphate-Buffered Saline (PBS) containing 0.002% Tween20 (buffer) five times. Then, the red blood cells were normalized to obtain a positive control read-out between 2.5 and 3.0 at 415 nm to stay within the linear range with the maximum sensitivity. A serial dilution of the compounds (128 – 1 µg/mL, 75 µL) was prepared in a 96-well polypropylene plate. The outer border of the plate was filled with 75 µL buffer. Each plate contained a positive control (0.1% Triton-X final concentration, 75 µL) and a negative control (buffer, 75 µL) in triplicate. The normalized blood cells (75 µL) were added and the plates were incubated at 37 °C for 1 h while shaking at 500 rpm. A flat-bottom polystyrene plate with 100 µL buffer in each well was prepared. After incubation, the plates were centrifuged (800 g for 5 min at room temperature) and 25 µL of the supernatant was transferred to their respective wells in the flat-bottom plate. The values obtained from a read-out at 415 nm were corrected for background (negative control) and transformed to a percentage relative to the positive control. […]

E. coli ATCC 25922 MCR-1 = assay type: cell-based, Escherichia coli
Description: as §1
Colisitin sulfate was purchased from Activate Scientific. Kanamycin monosulfate was purchased from MP Biomedicals. E. coli ATCC 25922, S. aureus USA300 (ATCC BAA1717), K. pneumoniae ATCC 13883 and A. baumannii ATCC 17961 belong to the American Type Culture Collection (ATCC). P. aeruginosa PAO1 was kindly provided by L.H.C. Quarles Van Ufford, Utrecht University, Utrecht, The Netherlands. E. coli ATCC 25922 MCR-1 was transfected in house using the pGDP2-MCR1 plasmid kindly provided by Yong-Xin Li, The University of Hong Kong, Hong Kong, China. Sheep blood agar plates (Ref. PB5039A) were purchased from Thermo Scientific. Tryptic soy broth (Ref. 02-200-500) was purchased from Scharlab. Mueller-Hinton broth (Ref. X927.1) was purchased from Carl Roth. Polypropylene 96-wells plates (Ref. 3879) were purchased from Corning. […]
(10.0 mL). 2-Chlorotrityl (CT) chloride resin (2.00 g, 0.81 mmol g-1) and DIPEA (420 µL, 2.40 mmol) were added. […]
A gradient […]
method for C14 - C16 laterocidine was employed, starting at 100% solvent A for 2 min, ramping up to 70 % solvent B over 45 min, ramping up to 100% solvent B over 1 min, remaining there for 6 min before ramping down to 100% solvent A and remaining there for 5 min. High resolution mass spectrometry (HRMS) spectra of brevicidine peptides were recorded by Analytical Services and Environmental Projects (ASEP) at Queen’s University Belfast on a Waters LCT Premier ToF mass spectrometer using the electrospray ionisation (ESI) technique. HRMS spectra of laterocidine peptides were performed on a Thermo Scientific Dionex UltiMate 3000 HPLC system with a Phenomenex Kinetex C18 (2.6 µm, 2.1 x 150 mm) column at 35 °C and equipped with a diode array detector. The following solvent system, at a flow rate of 0.3 mL/min, was used: solvent A = 0.1% formic acid in water, solvent B = 0.1% formic acid in acetonitrile. A gradient method was employed, starting at 95 % solvent A and 5 % solvent B for 1 min, ramping up to 95 % solvent B over 9 min, ramping up to 98 % solvent B over 1 min, remaining there for 1 min before ramping back down to 95 % solvent A over 2 min and remaining there for 1 min.
The system was connected to a Bruker micrOTOF-Q II mass spectrometer (ESI ionization) calibrated internally with sodium […]
as §2
as §3, with “MHB.” for “MHB. Aliquots of the inoculated TSB were incubated until an OD600 of around 0.5 was reached. The bacterial suspensions were then diluted with MHB (2 x 10^5 CFU mL-1) and added to the microplates containing the test compounds (50 µL to each well). The well-plates were sealed with an adhesive membrane and after 18 h of incubation at 37 °C with shaking at 600 rpm, the wells were visually inspected for bacterial”

[1] = CLSI broth microdilution in MHB, 18 h at 37 °C, visual inspection, three technical replicates
[2] = colistin-resistant strain carrying mcr-1, CLSI broth microdilution in MHB, 18 h at 37 °C, visual inspection, three technical replicates

SMILES: CC[C@H](C)CCCCC(=O)N[C@@H](CCN)C(=O)N[C@H](C(=O)N[C@@H](CCN)C(=O)N[C@H]1CCNC(=O)[C@H]([C@@H](C)O)NC(=O)[C@H](CCN)NC(=O)[C@H](CCN)NC(=O)[C@H](CC(C)C)NC(=O)[C@@H](CC(C)C)NC(=O)[C@H](CCN)NC1=O)[C@@H](C)O [Colistin, colistin, reference compound] (X1-[Dab]T[Dab][Dab][Dab][dL]L[Dab][Dab]T; lactam 4-C (inferred); N-terminus assumed)
- Antimicrobial activity (MIC) A. baumannii ATCC 17961 (A. baumannii ATCC 17961; [1]): ≤0.25 µg/mL
- Antimicrobial activity (MIC) E. coli ATCC 25922 (E. coli ATCC 25922; CLSI broth microdilution in MHB, polypropylene 96-well plates, 18 h at 37 °C, visual inspection, three technical replicates): 0.5 µg/mL
- Antimicrobial activity (MIC) P. aeruginosa PAO1 (P. aeruginosa PAO1; [1]): 4 µg/mL
- Antimicrobial activity (MIC) S. aureus USA300 (S. aureus USA300; [1]): >32 µg/mL
- Antimicrobial activity (MIC) K. pneumoniae ATCC 13883 (K. pneumoniae ATCC 13883; [1]): 0.5 µg/mL
- % Hemolytic activity, sheep red blood cells (Sheep red blood cells; peptide at 64 μg mL^−1, 1 h at 37 °C in PBS with 0.002% Tween20, read-out at 415 nm, relative to 0.1% Triton X-100 taken as 100%, triplicate): <0.1%
- Antimicrobial activity (MIC) E. coli ATCC 25922 MCR-1 (E. coli ATCC 25922 MCR-1; ATCC 25922, 18 h): 8 µg/mL

SMILES: CCC(C)CCC(=O)N[C@H](CC(N)=O)C(=O)N[C@H](Cc1ccc(O)cc1)C(=O)N[C@H](Cc1c[nH]c2ccccc12)C(=O)N[C@H](CCCN)C(=O)N[C@@H](CCCN)C(=O)NCC(=O)N[C@H](CCCN)C(=O)N[C@@H](Cc1c[nH]c2ccccc12)C(=O)N[C@@H]1C(=O)N[C@@H]([C@@H](C)CC)C(=O)NCC(=O)N[C@@H](CO)C(=O)O[C@@H]1C (some centres unmarked) [Compound 1, brevicidine] ({Hexanoyl(4ξ-Me)}-[dN][dY][dW][dOrn][Orn]G[dOrn]WTIGS; ester 9-C)
- Antimicrobial activity (MIC) A. baumannii ATCC 17961 (A. baumannii ATCC 17961; ATCC 17961, 18 h): 4 µg/mL
- Antimicrobial activity (MIC) E. coli ATCC 25922 (E. coli ATCC 25922; ATCC 25922, 18 h): 4 µg/mL
- Antimicrobial activity (MIC) P. aeruginosa PAO1 (P. aeruginosa PAO1; PAO1, 18 h): 8 µg/mL
- Antimicrobial activity (MIC) S. aureus USA300 (S. aureus USA300; USA300, 18 h): >32 µg/mL
- Antimicrobial activity (MIC) K. pneumoniae ATCC 13883 (K. pneumoniae ATCC 13883; ATCC 13883, 18 h): 2 µg/mL
- % Hemolytic activity, sheep red blood cells (Sheep red blood cells; red cells of sheep, 1 h, 64 μg mL^−1): 0.8%
- Antimicrobial activity (MIC) E. coli ATCC 25922 MCR-1 (E. coli ATCC 25922 MCR-1; [2]): 4 µg/mL

SMILES: CCCCCCCC(=O)N[C@H](CO)C(=O)N[C@H](Cc1ccc(O)cc1)C(=O)N[C@H](Cc1c[nH]c2ccccc12)C(=O)N[C@H](CCCN)C(=O)N[C@@H](CCCN)C(=O)NCC(=O)N[C@H](CCCN)C(=O)N[C@@H](Cc1c[nH]c2ccccc12)C(=O)N[C@@H]1C(=O)N[C@@H]([C@@H](C)CC)C(=O)N[C@@H](CC(N)=O)C(=O)NCC(=O)NCC(=O)O[C@@H]1C [Compound 22] (Octanoyl-[dS][dY][dW][dOrn][Orn]G[dOrn]WTINGG; ester 9-C)
- Antimicrobial activity (MIC) A. baumannii ATCC 17961 (A. baumannii ATCC 17961; ATCC 17961, 18 h): 4 µg/mL
- Antimicrobial activity (MIC) E. coli ATCC 25922 (E. coli ATCC 25922; ATCC 25922, 18 h): 2 µg/mL
- Antimicrobial activity (MIC) P. aeruginosa PAO1 (P. aeruginosa PAO1; PAO1, 18 h): 2 µg/mL
- Antimicrobial activity (MIC) S. aureus USA300 (S. aureus USA300; USA300, 18 h): >32 µg/mL
- Antimicrobial activity (MIC) K. pneumoniae ATCC 13883 (K. pneumoniae ATCC 13883; ATCC 13883, 18 h): 2 µg/mL
- Antimicrobial activity (MIC) E. coli ATCC 25922 MCR-1 (E. coli ATCC 25922 MCR-1; [2]): 2 µg/mL

SMILES: CCCCCCCCCCCCCC(=O)N[C@H](CO)C(=O)N[C@H](Cc1ccc(O)cc1)C(=O)N[C@H](Cc1c[nH]c2ccccc12)C(=O)N[C@H](CCCN)C(=O)N[C@@H](CCCN)C(=O)NCC(=O)N[C@H](CCCN)C(=O)N[C@@H](Cc1c[nH]c2ccccc12)C(=O)N[C@@H]1C(=O)N[C@@H]([C@@H](C)CC)C(=O)N[C@@H](CC(N)=O)C(=O)NCC(=O)NCC(=O)O[C@@H]1C [Compound 25] (Myristoyl-[dS][dY][dW][dOrn][Orn]G[dOrn]WTINGG; ester 9-C)
- Antimicrobial activity (MIC) A. baumannii ATCC 17961 (A. baumannii ATCC 17961; ATCC 17961, 18 h): 2 µg/mL
- Antimicrobial activity (MIC) E. coli ATCC 25922 (E. coli ATCC 25922; ATCC 25922, 18 h): 8 µg/mL
- Antimicrobial activity (MIC) P. aeruginosa PAO1 (P. aeruginosa PAO1; PAO1, 18 h): 8 µg/mL
- Antimicrobial activity (MIC) S. aureus USA300 (S. aureus USA300; USA300, 18 h): 16 µg/mL
- Antimicrobial activity (MIC) K. pneumoniae ATCC 13883 (K. pneumoniae ATCC 13883; ATCC 13883, 18 h): 8 µg/mL
- Antimicrobial activity (MIC) E. coli ATCC 25922 MCR-1 (E. coli ATCC 25922 MCR-1; [2]): 8 µg/mL
